Measured values as given in PMC6864762, “Angiotensin-I-Converting Enzyme Inhibitory Activity of Coumarins from Angelica decursiva” (Molecules, 2019).

Columns and labels:
ACE [1] = system: ACE; set-up: method as in earlier work; settings: ref 25 (Hyun et al.); cited from earlier work
ACE [2] = target: T1, ACE (Oryctolagus cuniculus, UniProt P12822); experiment: ACE inhibitory activity assay with FAPGG as substrate; settings: for Inhibitory effect on ACE (in words): structure–activity discussion of Table 2
T1 sequence (P12822 34-1310): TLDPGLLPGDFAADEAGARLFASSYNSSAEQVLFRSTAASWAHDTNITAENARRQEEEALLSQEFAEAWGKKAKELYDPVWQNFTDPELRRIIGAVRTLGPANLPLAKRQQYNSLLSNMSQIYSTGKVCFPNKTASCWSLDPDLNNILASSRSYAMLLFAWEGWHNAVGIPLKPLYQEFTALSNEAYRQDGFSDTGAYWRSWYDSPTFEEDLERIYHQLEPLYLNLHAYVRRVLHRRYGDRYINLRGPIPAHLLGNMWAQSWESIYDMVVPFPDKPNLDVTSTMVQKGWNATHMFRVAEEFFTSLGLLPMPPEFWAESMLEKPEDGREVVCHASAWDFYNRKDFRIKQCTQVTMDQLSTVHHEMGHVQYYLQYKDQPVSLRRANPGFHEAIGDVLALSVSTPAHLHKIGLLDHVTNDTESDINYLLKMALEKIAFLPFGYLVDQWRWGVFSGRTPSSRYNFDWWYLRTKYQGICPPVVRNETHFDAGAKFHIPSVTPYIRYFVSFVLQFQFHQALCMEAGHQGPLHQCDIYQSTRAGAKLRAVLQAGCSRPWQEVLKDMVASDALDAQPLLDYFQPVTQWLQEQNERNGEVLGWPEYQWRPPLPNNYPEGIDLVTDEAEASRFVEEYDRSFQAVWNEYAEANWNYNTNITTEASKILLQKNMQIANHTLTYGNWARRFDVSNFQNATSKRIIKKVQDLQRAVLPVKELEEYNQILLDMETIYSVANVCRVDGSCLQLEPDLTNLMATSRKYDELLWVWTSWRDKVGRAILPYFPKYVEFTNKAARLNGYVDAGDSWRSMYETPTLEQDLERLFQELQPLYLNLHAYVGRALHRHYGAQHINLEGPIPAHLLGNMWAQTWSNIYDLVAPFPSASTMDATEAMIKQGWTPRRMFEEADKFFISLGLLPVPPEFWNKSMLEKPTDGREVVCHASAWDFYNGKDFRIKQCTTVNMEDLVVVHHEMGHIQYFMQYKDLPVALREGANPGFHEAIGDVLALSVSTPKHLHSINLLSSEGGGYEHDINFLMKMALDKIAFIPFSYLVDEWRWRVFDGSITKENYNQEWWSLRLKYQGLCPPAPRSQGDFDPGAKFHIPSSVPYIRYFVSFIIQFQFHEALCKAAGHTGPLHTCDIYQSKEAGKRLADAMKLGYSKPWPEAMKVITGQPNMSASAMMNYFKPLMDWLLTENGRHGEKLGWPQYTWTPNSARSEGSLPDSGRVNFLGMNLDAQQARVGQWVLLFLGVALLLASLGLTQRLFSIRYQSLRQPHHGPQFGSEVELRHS
Protocol: The ACE inhibitory activity of 18 compounds was conducted according to Hyun et al. [8] and modified to use FAPGG as the substrate. In brief, FAPGG (0.5 mM) and various concentrations of the samples were completely dissolved in 50 mM Tris–HCl buffer (pH 7.5).

ACE [3] = target: T1, ACE; experiment: Enzyme kinetics of ACE inhibition (Lineweaver–Burk and secondary plots); assay type: biochemical, rabbit; set-up: ACE (1 Unit, rabbit lung); purchased Sigma Chemical Company (St Louis, MO, USA); host or cells: rabbit lung (tissue-derived); settings: for Type of Inhibition: Lineweaver–Burk plot and secondary plot, FAPGG 0.1–0.5 mM; for Ki: from secondary plot of slope (Km,app/Vmax,app) versus inhibitor
Protocol: All chemicals and solvents used for column chromatography were of reagent grade and purchased from commercial sources, unless otherwise stated.
To determine the inhibition mechanisms, ACE inhibition was evaluated by monitoring the effects of different concentrations of substrate […]. The reaction mixture consisted of different concentrations of FAPGG (0.1–0.5 mM), as the substrate, and ACE in 50 mM Tris–HCl buffer. Several concentrations of each sample were added to the reaction mixture. The tested concentrations of coumarins are as follows: 12 (0, 2.5, 5, and 10 µM); 13 (0, 2.5, 5, and 10 µM); 15 (0, 1.28, 2.56, and 5.12 µM). Inhibition constants (Ki) were determined by interpretation of the secondary plots from Lineweaver–Burk plot.

IC50 (ACE [2]) [µM]	Structure (SMILES)	further results
6.75 ± 0.43	CC(C)=CC(=O)O[C@H]1[C@H](O)c2cc3ccc(=O)oc3cc2OC1(C)C [Compound 13, Pd-C-I]	Type of Inhibition (ACE [3]): competitive inhibition; Ki (ACE [3]): 2.35 µM
20 ± 0.79	CC(C)=CC(=O)O[C@@H]1c2cc3ccc(=O)oc3cc2OC(C)(C)[C@H]1OC(=O)C=C(C)C [Compound 14, decursidin]	–
4.68 ± 0.22	CC1(C)Oc2cc3oc(=O)ccc3cc2[C@@H](O)[C@@H]1O [Compound 15, (+)-trans-decursidinol]	Type of Inhibition (ACE [3]): competitive inhibition; Ki (ACE [3]): 0.59 µM
12.4 ± 0.27	CC(C)=CC(=O)O[C@@H]1c2cc3ccc(=O)oc3cc2OC(C)(C)[C@H]1O [Compound 16, Pd-C-II]	–
15.2 ± 0.39	C/C=C(/C)C(=O)O[C@H]1[C@H](OC(C)=O)c2cc3ccc(=O)oc3cc2OC1(C)C [Compound 17, Pd-C-III]	–
16 ± 0.92	CO[C@@H]1c2cc3ccc(=O)oc3cc2OC(C)(C)[C@H]1OC(=O)C=C(C)C [Compound 18, 4′-methoxy Pd-C-I]	–

Continued, compound first:

Structure (SMILES)	IC50 (ACE [2]) [µM]	further results
CC(C)(O[C@@H]1O[C@H](CO)[C@@H](O)[C@H](O)[C@H]1O)[C@H]1Cc2cc3ccc(=O)oc3cc2O1 [Compound 1, nodakenin]	112.5 ± 0.71	ACE inhibitory activity (in words) (ACE [1]): promising ACE inhibitory activity
CC(C)(O)[C@H]1Cc2cc3ccc(=O)oc3cc2O1 [Compound 2, nodakenetin]	102.3 ± 0.29	–
CC(C)(OC1OC(CO)C(O)C(O)C1O)C1Cc2cc3ccc(=O)oc3c(O)c2O1 (stereo not drawn) [Compound 3, isorutarine]	68.36 ± 0.27	–
O=c1ccc2ccc(O)cc2o1 [Compound 4, umbelliferone]	–	ACE inhibitory activity (in words) (ACE [1]): promising ACE inhibitory activity
O=C(O)c1cc2ccc(=O)oc2cc1O [Compound 5, umbelliferone 6-carboxylic acid]	156.1 ± 0.41	ACE inhibitory activity (in words) (ACE [1]): promising ACE inhibitory activity; Inhibitory effect on ACE (in words) (ACE [2]): moderate inhibitory effects
O=C(O)c1ccc(O)cc1 [Compound 6, para-hydroxy benzoic acid]	492.4 ± 0.89	–
CC(C)c1cc2cc3ccc(=O)oc3cc2o1 [Compound 8, 2′-isopropyl psoralene]	311.1 ± 0.33	Inhibitory effect on ACE (in words) (ACE [2]): weak activity
C/C=C(\C)C(=O)O[C@@H]1c2c(ccc3ccc(=O)oc23)OC(C)(C)[C@@H]1OC(C)=O [Compound 9, 3′(R)-O-acetyl-4′(S)-O-tigloylkhellactone]	89.36 ± 0.38	–
C/C=C(/C)C(=O)O[C@@H]1c2c(ccc3ccc(=O)oc23)OC(C)(C)[C@@H]1OC(C)=O [Compound 10, cis-3′-acetyl-4′-angeloylkhellactone]	71.48 ± 0.47	–
CC1(C)Oc2cc3oc(=O)ccc3cc2C[C@@H]1O [Compound 11, decursinol]	18.3 ± 0.61	–
C/C=C(/C)C(=O)O[C@H]1[C@H](O)c2cc3ccc(=O)oc3cc2OC1(C)C [Compound 12, 4′-hydroxy Pd-C-III]	9.41 ± 0.69	Type of Inhibition (ACE [3]): competitive inhibition; Ki (ACE [3]): 1.98 µM
